For five compounds, IC50 and viability, T/C results are on record in PubChem BioAssay AID1918998 (Molecular Pharmacology Branch, DTP, NCI, 2023).

The structures appear in SMILES notation. Where “and” joins values, the source holds several entries; their conditions need not be identical. Equal values may be shown once. Some results are limits rather than exact numbers.

This experiment relates to 521955-158-R2-J5-PDC complex spheroid growth. Put plainly: Anticancer human tumor 521955-158-R2-J5-PDC patient-derived pancreatic carcinoma cell line growth inhibition [AhR]. Conditions: for viability, T/C: stronger effect = lower value. A digest of the protocol: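 Spheroids combined tumor cells with HUVEC endothelial cells and human MSCs as stroma. AhR antagonists were paired with standard or investigational drugs, each dosed in half-log steps down from near clinical Cmax, or from 10 microM where Cmax was unknown.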

The mark [1] stands for this setting: curve of first compound, second compound 0.1 µM.
Setting [2] is: curve of first compound, second compound 0.316 µM.
The mark [3] stands for this setting: curve of first compound, second compound 1 µM.
Setting [4] is: curve of first compound, second compound 3.16 µM.
[5] abbreviates: curve of first compound, second compound 10 µM.
Setting [6] is: second compound 0.1 µM, first compound 0.00316 µM.
[7] abbreviates: second compound 0.1 µM, first compound 0.01 µM.
[8] abbreviates: second compound 0.1 µM, first compound 0.0316 µM.
The mark [9] stands for this setting: second compound 0.1 µM, first compound 0.1 µM.
Setting [10] is: second compound 0.316 µM, first compound 0.00316 µM.
Where [11] appears, read: second compound 0.316 µM, first compound 0.01 µM.
Where [12] appears, read: second compound 0.316 µM, first compound 0.0316 µM.
The mark [13] stands for this setting: second compound 0.316 µM, first compound 0.1 µM.
Where [14] appears, read: second compound 1 µM, first compound 0.00316 µM.
The mark [15] stands for this setting: second compound 1 µM, first compound 0.01 µM.
[16] abbreviates: second compound 1 µM, first compound 0.0316 µM.
Setting [17] is: second compound 1 µM, first compound 0.1 µM.
Where [18] appears, read: second compound 3.16 µM, first compound 0.00316 µM.
Where [19] appears, read: second compound 3.16 µM, first compound 0.01 µM.
Setting [20] is: second compound 3.16 µM, first compound 0.0316 µM.
The mark [21] stands for this setting: second compound 3.16 µM, first compound 0.1 µM.
The mark [22] stands for this setting: second compound 10 µM, first compound 0.00316 µM.
Setting [23] is: second compound 10 µM, first compound 0.01 µM.
Setting [24] is: second compound 10 µM, first compound 0.0316 µM.
[25] abbreviates: second compound 10 µM, first compound 0.1 µM.
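Wherever viability, T/C is given: spheroids mix tumor cells with HUVEC endothelium and human MSC stroma; luminescence taken as viability surrogate after a week of drug exposure.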

Take `CC1COCCN1c1cc(-c2ccnn2C)c2ccnc(-c3ccn[nH]3)c2n1` (centres undefined) + Cc1cncc(-c2nc(NCCc3c[nH]c4ccccc34)c3ncn(C(C)C)c3n2)c1: the IC50 by setting is: under setting [1], 0.116 µM; under setting [2], 0.136 µM; under setting [3], 0.0874 µM; under setting [4], 0.132 µM; under setting [5], 0.0888 µM. Further, the viability, T/C was 112% under setting [6]; 109% under setting [7]; 106% under setting [8]; 55.6% under setting [9]; 12.8% (second compound 0.1 µM, first compound 0.316 µM); 16.2% (second compound 0.1 µM, first compound 1 µM). Also, the viability, T/C reads like this: under setting [10], 113%; under setting [11], 130%; under setting [12], 117%; under setting [13], 63.3%; (second compound 0.316 µM, first compound 0.316 µM) 12.4%; (second compound 0.316 µM, first compound 1 µM) 12.7%. Moreover, the viability, T/C under setting [14] is 94.7%; the viability, T/C under setting [15] was 123%; the viability, T/C under setting [16] is 121%; the viability, T/C under setting [17] was 41.6%; the viability, T/C (second compound 1 µM, first compound 0.316 µM) was 15.7%; the viability, T/C (second compound 1 µM, first compound 1 µM) is 13.1%. The viability, T/C is, setting by setting: under setting [18], 176%; under setting [19], 167%; under setting [20], 145%; under setting [21], 61.1%; (second compound 3.16 µM, first compound 0.316 µM) 13.6%; (second compound 3.16 µM, first compound 1 µM) 19.1%. The viability, T/C is, setting by setting: under setting [22], 127%; under setting [23], 134%; under setting [24], 105%; under setting [25], 45.2%; (second compound 10 µM, first compound 0.316 µM) 8.85%; (second compound 10 µM, first compound 1 µM) 12.9%.
As for `O=C(C=Cc1cccc(S(=O)(=O)Nc2ccccc2)c1)NO`, the viability, T/C is, setting by setting: (compound 0.0316 µM) 97.4% and 85.1% and 115%; (compound 0.1 µM) 95.1% and 99.1% and 103%; (compound 0.316 µM) 94.2% and 96.2% and 102%; (compound 1 µM) 88.4% and 104% and 69.3%; (compound 3.16 µM) 59.1% and 79.9% and 54.3%; (compound 10 µM) 40.5% and 52.5% and 24.2%. Further, the IC50 (curve of compound) was 5.55 µM and > 10 µM and 3.32 µM.
Take `CCc1c2c(nc3ccc(O)cc13)-c1cc3c(c(=O)n1C2)COC(=O)[C@]3(O)CC` + Cc1cncc(-c2nc(NCCc3c[nH]c4ccccc34)c3ncn(C(C)C)c3n2)c1: the half-maximal inhibitory concentration (IC50) under setting [1] was 0.00404 µM; the IC50 under setting [2] was found to be 0.00398 µM; the IC50 under setting [3] came to 0.00417 µM; the IC50 under setting [4] was determined as 0.00421 µM; the IC50 under setting [5] was 0.003 µM. In addition, the viability, T/C runs as follows: (second compound 0.1 µM, first compound 0.000949 µM) 78.5%; (second compound 0.1 µM, first compound 0.003 µM) 58.6%; (second compound 0.1 µM, first compound 0.00949 µM) 25.2%; (second compound 0.1 µM, first compound 0.03 µM) 16.5%; (second compound 0.1 µM, first compound 0.0949 µM) 14.9%; (second compound 0.1 µM, first compound 0.3 µM) 12.5%. Further, the viability, T/C is, setting by setting: (second compound 0.316 µM, first compound 0.000949 µM) 70.1%; (second compound 0.316 µM, first compound 0.003 µM) 57.8%; (second compound 0.316 µM, first compound 0.00949 µM) 26.5%; (second compound 0.316 µM, first compound 0.03 µM) 18%; (second compound 0.316 µM, first compound 0.0949 µM) 12.4%; (second compound 0.316 µM, first compound 0.3 µM) 12.3%. In addition, the viability, T/C is, setting by setting: (second compound 1 µM, first compound 0.000949 µM) 90.1%; (second compound 1 µM, first compound 0.003 µM) 60%; (second compound 1 µM, first compound 0.00949 µM) 24.5%; (second compound 1 µM, first compound 0.03 µM) 21%; (second compound 1 µM, first compound 0.0949 µM) 16.4%; (second compound 1 µM, first compound 0.3 µM) 15.2%. Moreover, the viability, T/C was 70.4% (second compound 3.16 µM, first compound 0.000949 µM); 58.7% (second compound 3.16 µM, first compound 0.003 µM); 29.7% (second compound 3.16 µM, first compound 0.00949 µM); 18.2% (second compound 3.16 µM, first compound 0.03 µM); 16.7% (second compound 3.16 µM, first compound 0.0949 µM); 10.5% (second compound 3.16 µM, first compound 0.3 µM). Besides, the viability, T/C was 98.9% (second compound 10 µM, first compound 0.000949 µM); 49.8% (second compound 10 µM, first compound 0.003 µM); 24.1% (second compound 10 µM, first compound 0.00949 µM); 15.3% (second compound 10 µM, first compound 0.03 µM); 8.29% (second compound 10 µM, first compound 0.0949 µM); 4.78% (second compound 10 µM, first compound 0.3 µM).
As for `Cn1ncnc1C1c2n[nH]c(=O)c3cc(F)cc(c23)NC1c1ccc(F)cc1` (centres undefined) + CC(CO)NC(=O)c1cc(-c2ccc(Cl)cc2)nn(-c2cnn(C)c2)c1=O, the IC50 under setting [1] is > 0.1 µM; the IC50 under setting [2] was > 0.1 µM; the IC50 under setting [3] was > 0.1 µM; the IC50 under setting [4] was > 0.1 µM; the IC50 under setting [5] is > 0.1 µM. The viability, T/C reads like this: (second compound 0.1 µM, first compound 0.000316 µM) 99.2%; (second compound 0.1 µM, first compound 0.001 µM) 112%; under setting [6], 116%; under setting [7], 108%; under setting [8], 105%; under setting [9], 83%. Moreover, the viability, T/C reads like this: (second compound 0.316 µM, first compound 0.000316 µM) 117%; (second compound 0.316 µM, first compound 0.001 µM) 107%; under setting [10], 120%; under setting [11], 119%; under setting [12], 74.1%; under setting [13], 103%. Also, the viability, T/C is 103% (second compound 1 µM, first compound 0.000316 µM); 134% (second compound 1 µM, first compound 0.001 µM); 112% under setting [14]; 114% under setting [15]; 106% under setting [16]; 100% under setting [17]. For the same compound, the viability, T/C is 118% (second compound 3.16 µM, first compound 0.000316 µM); 121% (second compound 3.16 µM, first compound 0.001 µM); 86.1% under setting [18]; 89.3% under setting [19]; 86.1% under setting [20]; 78.5% under setting [21]. In addition, the viability, T/C (second compound 10 µM, first compound 0.000316 µM) was 104%; the viability, T/C (second compound 10 µM, first compound 0.001 µM) was 100%; the viability, T/C under setting [22] is 99.7%; the viability, T/C under setting [23] is 82.6%; the viability, T/C under setting [24] is 60.1%; the viability, T/C under setting [25] is 77.8%.
Regarding `COc1cccc2c1C(=O)c1c(O)c3c(c(O)c1C2=O)CC(O)(C(=O)CO)CC3OC1CC(N)C(O)C(C)O1` (centres undefined), the viability, T/C is 60.2% and 42.4% and 46.4% (compound 0.0316 µM); 51.7% and 29.8% and 35.3% (compound 0.1 µM); 40.5% and 30.9% and 23.8% (compound 0.316 µM); 2.19% and 6.39% and 4.25% (compound 1 µM); 3.29% and 2.59% and 2.1% (compound 3.16 µM); 12.3% and 10.8% and 14% (compound 10 µM). Moreover, under “curve of compound”, the half-maximal inhibitory concentration (IC50) was 0.155 µM and < 0.0316 µM.
